In publication PMC11012289, “The Discovery of New Inhibitors of Insulin-Regulated Aminopeptidase by a High-Throughput Screening of 400,000 Drug-like Compounds” (International Journal of Molecular Sciences, 2024):
Read-outs that look alike come from different tables or passages of the source.

Key:
[1] = biological target: T1, IRAP (Homo sapiens, UniProt Q9UIQ6); experiment: Primary fluorescence IRAP assay (L-Leucine-7-amido-4-methylcoumarin cleavage); format: biochemical; conditions: for LipE: calculated from (pIC50Fluorescence − LogD); for LogEC50 (best-fit): log of concentration in M; for EC50: read-out: EC50 (best-fit)
T1 construct: The screen was performed with the soluble truncated IRAP enzyme; made in house
Text: The primary biochemical assay was developed to measure the enzymatic activity of IRAP.
To ensure biochemically sound, optimal, robust, and affordable assay conditions for large-scale screening, several factors need to be considered. […] For both primary fluorescence and orthogonal absorbance assays, non-binding 1536-well assay plates were used, and 0.05% BSA was included in the assay buffer to minimize the issues associated with protein sticking to plastics. The substrate Km values were determined in two separate experiments using two different batches of IRAP protein. For this, the IRAP progress curve was monitored every 5 min for 2 h using an Envision multimode plate reader (PerkinElmer, Waltham, MA, USA).
First, 10 nL of test compounds (4 mM) or 100% DMSO was dispensed into the 1536-well assay plates using an Echo acoustic liquid handler (Beckman Coulter, Brea, CA, USA). Then, 2 μL of protein working solution (5 × 10^−4 mg/mL) was dispensed to the negative control (min effect) and compound wells (final well concentration 2.5 × 10^−4 mg/mL) using a Certus Flex liquid dispenser (Fritz Gyger AG, Thun, Switzerland) and 2 μL assay buffer to the positive control wells (max effect) using a FLEXdrop (PerkinElmer, Waltham, MA, USA).
Figure S9. Reference compounds in Fluorescence IRAP assay with different end volumes in 1536-well format.
mg/ml) and 2 or 4 µL L -Leucine-7-amido-4-methylcoumarin (f.a.c.
Plates were measured on the Envision every 10 minutes for 140 minutes (data
shown up to 2 hours). %Effect was calculated using no protein as MAX effect (assay buffer was added instead of IRAP).

[2] = biological target: T1, IRAP; experiment: Thermal shift (TSA) IRAP assay; format: binding
Text: The Thermal shift assay (TSA) is a biophysical technique measuring protein thermal stability. The assay relies on a fluorescent dye that is quenched in an aqueous environment but fluoresces when de-solvated in non-polar environments, such as the hydrophobic pockets of proteins. The target protein is mixed with the dye and heated gradually until it becomes completely denatured; as it unfolds or melts, the dye binds to newly exposed hydrophobic regions of the protein, resulting in a significant increase in fluorescence emission detected by a PCR system. The melting temperature (Tm) is calculated from the protein melt curve, and changes in Tm (known as ΔTm) are correlated with changes in protein stability and ligand binding. […] For the TSA assay, vehicle (DMSO) or compound was dispensed into MicroAmp Endura optical qPCR plates at the desired volume using an Echo acoustic liquid handler. […] The plates were then centrifuged for 10 s at 1000 rpm and sealed with Clear PCR-compatible plate seals.

[3] = biological target: T1, IRAP; experiment: Orthogonal absorbance IRAP assay (L-Leucine para-nitroanilide cleavage); format: biochemical; conditions: for IC50: read-out: Absorbance pIC50 (converted)
Text: The primary biochemical assay was developed to measure the enzymatic activity of IRAP. […] To establish an orthogonal assay, an alternative L-Leucine para-nitroanilide substrate was used, which IRAP turns over to L-Leucine and para-nitroaniline and is measurable by absorbance at 405 nm (Supplementary Figure S2B).
To ensure biochemically sound, optimal, robust, and affordable assay conditions for large-scale screening, several factors need to be considered. These include the final concentration of substrates, based on the determined substrate Km value; the assay kinetics and reaction linearity; achieving a minimal, rate limiting protein concentration; identifying optimal buffer additives and concentrations; the choice of assay plate type; the final assay volume per well; the stability of reagents; the magnitude and variance of the signal; and the potency and rank order of reference compounds. For both primary fluorescence and orthogonal absorbance assays, non-binding 1536-well assay plates were used, and 0.05% BSA was included in the assay buffer to minimize the issues associated with protein sticking to plastics. The substrate Km values were determined in two separate experiments using two different batches of IRAP protein. For this, the IRAP progress curve was monitored every 5 min for 2 h using an Envision multimode plate reader (PerkinElmer, Waltham, MA, USA). […] To evaluate if using substrate concentrations close to the determined Km values results in sufficient dynamic range within the linear range of the enzymatic reaction, Z′ and S/B were calculated for multiple time points up to 2.5 h in the presence and absence of reference compounds in both assays. The primary fluorescence assay reached an optimal Z′-value after 1 h when using 37.5 μM substrate (Supplementary Figure S5). For the absorbance, 2 h was required for the enzyme reaction time; however, using ~0.4 mM substrate was associated with increased assay variation and a poor Z′ (Supplementary Figure S6).
The orthogonal assay was performed in a black non-binding 1536-well plate (Corning 3728) and sealed with universal lids (Corning 3098). First, 20 nL of test compounds (4 mM) or 100% DMSO was dispensed into the 1536-well assay plates using an Echo acoustic liquid handler (Beckman Coulter). Then, 4 μL of protein working solution (5 × 10^−4 mg/mL) was dispensed to the negative control (min effect) and compound wells (final well concentration 2.5 × 10^−4 mg/mL) using the Certus Flex liquid dispenser (Fritz Gyger AG) and 4 μL assay buffer to the positive control wells (max effect) using the FLEXdrop (PerkinElmer). Next, 4 μL of 2 mM substrate working solution was dispensed into all wells using the FLEXdrop (final well concentration 1 mM). The assay plates were then centrifuged at 187.5× g for 30 s, incubated in the dark at RT for 120 min, and finally read on an Envision plate reader (PerkinElmer) (absorbance at 405 nm, 10 flashes per second). During the dose–response curve analysis in the orthogonal assay, 80 nL of compound (range 2.00 × 10^−3 M–2.74 × 10^−6 M) or 100% DMSO was dispensed into the assay plates using an Echo acoustic liquid handler (Beckman Coulter) with final well concentration range of 20 μM–27.4 nM compound and 1% DMSO.

[4] = parameters: method as in ELF screening history; conditions: ref ELF screening history, cited from earlier work; for Enzyme Active: number of ELF enzyme screens in which the compound was active; for Targets active: number of ELF screens in which the compound was active; for Enzyme Active %: share of ELF enzyme targets screened; for Targets Active %: share of all ELF targets screened
[5] = biological target: T1, IRAP; experiment: Deselection fluorescence IRAP assay with 10 µM zinc; format: biochemical; conditions: 10 µM ZnSO4 in assay buffer; for IC50: read-out: Fluorescence + Zn pIC50 (converted)
Procedure: To prepare the assay buffer (50 mM Tris-HCl pH 7.4, 150 mM NaCl, 0.1 mM PMSF, 0.05% BSA) of the primary and orthogonal assays, 1 M Tris-HCl was prepared by dissolving 60.57 g Trizma-base (Mw 121.14 g/mol) (Sigma 93362-250G) in 500 mL MQ water, and the pH was adjusted to 7.4 using 4 M HCl. The solution was filtered with a 0.45 μm filter and stored at room temperature (RT). Then, 2 M NaCl stock was prepared by dissolving 29.22 g NaCl (Mw 58.44 g/mol) (Sigma S7653-250G) in 250 mL MQ water. The solution was filtered with a 0.45 μm filter and stored at RT. Next, 100 mM Phenylmethanesulfonylfluoride (PMSF) stock was prepared by dissolving 1 g PMSF (Mw 174.19 g/mol) (Sigma 78830-1G) in 57.4 mL isopropanol (Sigma I9516-500ML) and stored at 4 °C. A 10% Bovine Serum Albumin (BSA) stock solution was prepared by dissolving 2 g BSA (Mw 66.5 kDa) (Sigma A7030-50G), which was dissolved in 20 mL MQ water. The solution was filtered with a 0.45 μm filter, aliquoted, and stored at −20 °C. For the deselection assay buffer (50 mM Tris-HCl pH 7.4, 150 mM NaCl, 0.1 mM PMSF, 0.05% BSA, 10 μM ZnSO4), 1 mM ZnSO4 solution was prepared by dissolving 28.8 mg ZnSO4 (Mw 287.56 g/mol) (Sigma Z0251-100G) in 100 mL MQ water. The solution was filtered with a 0.45 μm filter and stored at RT. For the TSA assay buffer (50 mM Tris HCL, 150 mM NaCl, pH 7.4), stocks of 1 M Tris HCL and 2 M NaCl were prepared as described above.

[6] = 37.5 µM L-Leucine-7-amido-4-methylcoumarin, 60 min RT, dose-response 20 µM-27.4 nM, read-out: Fluorescence IC50
[7] = screening hits at 30 µM, 1% DMSO
[8] = 1 mM L-Leucine p-Nitroanilide, 120 min RT
[9] = 1536-well format, steady-state velocity, read-out: Km (substrate)
[10] = 37.5 µM L-Leucine-7-amido-4-methylcoumarin, 60 min RT, dose-response 20 µM-27.4 nM, read-out: Fluorescence pIC50 (converted)

T1 sequence (Q9UIQ6 155-1025 limits assumed): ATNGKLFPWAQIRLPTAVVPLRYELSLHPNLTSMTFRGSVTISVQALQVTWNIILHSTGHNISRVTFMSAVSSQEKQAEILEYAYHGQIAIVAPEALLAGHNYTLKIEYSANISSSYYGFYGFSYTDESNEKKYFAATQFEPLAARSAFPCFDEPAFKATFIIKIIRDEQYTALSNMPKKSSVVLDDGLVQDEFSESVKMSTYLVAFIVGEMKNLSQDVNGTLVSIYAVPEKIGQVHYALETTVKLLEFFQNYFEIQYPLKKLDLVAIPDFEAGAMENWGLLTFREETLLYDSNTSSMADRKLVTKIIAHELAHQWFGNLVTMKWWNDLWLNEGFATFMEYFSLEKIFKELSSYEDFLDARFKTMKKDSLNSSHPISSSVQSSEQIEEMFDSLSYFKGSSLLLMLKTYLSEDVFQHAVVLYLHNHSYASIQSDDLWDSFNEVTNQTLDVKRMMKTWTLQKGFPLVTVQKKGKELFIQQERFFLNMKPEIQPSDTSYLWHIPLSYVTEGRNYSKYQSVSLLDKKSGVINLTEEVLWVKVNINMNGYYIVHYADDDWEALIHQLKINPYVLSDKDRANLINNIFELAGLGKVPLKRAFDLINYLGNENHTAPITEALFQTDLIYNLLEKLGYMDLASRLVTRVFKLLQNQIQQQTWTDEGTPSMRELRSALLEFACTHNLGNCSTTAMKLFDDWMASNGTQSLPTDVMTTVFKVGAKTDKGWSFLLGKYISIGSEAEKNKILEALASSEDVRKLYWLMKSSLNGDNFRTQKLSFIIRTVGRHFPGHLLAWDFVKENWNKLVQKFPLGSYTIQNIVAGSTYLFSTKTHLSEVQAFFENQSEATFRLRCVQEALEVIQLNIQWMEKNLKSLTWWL

SMILES | IC50 [1, 6] | LipE [1] | Enzyme Active [4] | Targets active [4] | Enzyme Active % [4] | Targets Active % [4] | IC50 [1, 10] | ΔTm at 30 µM [2, 7] | IC50 [3, 8] | IC50 [5] | also measured
Cc1ccc(-c2nc(C3CCCN3C(=O)NCc3ccccc3)n3ccccc23)cc1 (racemic) [QHL36] | 3980 nM | 0.29 | 4 | 6 | 7.1% | 5.8% | – | – | – | – | Fluorescence pIC50 ([1]; 37.5 µM L-Leucine-7-amido-4-methylcoumarin, 60 min RT, dose-response 20 µM-27.4 nM): 5.40; TSA (∆°C), thermal shift of IRAP [2, 7]: 0.3 °C; Absorbance pIC50 [3, 8]: 5.80; Fluorescence + Zn pIC50 [5]: 5.31
O=S(=O)(Nc1cccc(-c2nnn[nH]2)c1)c1cc(Cl)c(Cl)cc1Cl [I, reference compound] | – | – | – | – | – | – | – | – | – | – | LogEC50 (best-fit) ([1]; 4 µl end volume, 30 min): -4.565; EC50 ([1]; 4 µl end volume, 30 min): 27200 nM; LogEC50 (best-fit) ([1]; 4 µl end volume, 60 min): -4.541; EC50 ([1]; 4 µl end volume, 60 min): 28800 nM; LogEC50 (best-fit) ([1]; 4 µl end volume, 90 min): -4.517; EC50 ([1]; 4 µl end volume, 90 min): 30400 nM; LogEC50 (best-fit) ([1]; 4 µl end volume, 120 min): -4.5; EC50 ([1]; 4 µl end volume, 120 min): 31600 nM; LogEC50 (best-fit) ([1]; 8 µl end volume, 30 min): -4.385; EC50 ([1]; 8 µl end volume, 30 min): 41200 nM; LogEC50 (best-fit) ([1]; 8 µl end volume, 60 min): -4.449; EC50 ([1]; 8 µl end volume, 60 min): 35600 nM; LogEC50 (best-fit) ([1]; 8 µl end volume, 90 min): -4.469; EC50 ([1]; 8 µl end volume, 90 min): 34000 nM; LogEC50 (best-fit) ([1]; 8 µl end volume, 120 min): -4.427; EC50 ([1]; 8 µl end volume, 120 min): 37400 nM; stabilization of the thermal melting temperature of IRAP ([2]; 10-point half-log concentration series): dose-dependent and saturable; IRAP Tm ([2]; compound at 400 µM): 69.05 ± 0.17 °C
CC(C)C[C@H](N)C(=O)Nc1ccc([N+](=O)[O-])cc1 [L-Leucine p-Nitroanilide, reference compound] | – | – | – | – | – | – | – | – | – | – | Km [3, 9]: 380 µM
Cc1cc(=O)oc2cc(NC(=O)[C@@H](N)CC(C)C)ccc12 [L-Leucine-7-amido-4-methylcoumarin, reference compound] | – | – | – | – | – | – | – | – | – | – | Km [1, 9]: 36.6 µM
O=C(Cc1ccccc1S(=O)(=O)N1CCc2ccccc2C1)NO [QHL1, 2-(2-((3,4-dihydroisoquinolin-2(1H)-yl)sulfonyl)phenyl)-N-hydroxyacetamide] | – | 4.85 | 2 | 7 | 2.1% | 4.7% | 316 nM | 6.77 °C | 871 nM | 316 nM | –
O=C(NO)C(CS(=O)(=O)N1CCC(c2ccc(F)cc2Cl)C1)C1CCOCC1 (stereo not drawn) [QHL2] | – | 4.89 | 4 | 5 | 4.3% | 3.4% | 355 nM | 3.7 °C | 794 nM | 339 nM | –
CC(C)C(CS(=O)(=O)N(Cc1cc2ccccc2o1)C(C)C)C(=O)NO (stereo not drawn) [QHL3] | – | 4.08 | 3 | 4 | 3.2% | 2.7% | 380 nM | 5.22 °C | 708 nM | 389 nM | –
COc1ccc(S(=O)(=O)CCC(CCCc2ccccc2)C(=O)NO)cc1 (stereo not drawn) [QHL4] | 710 nM | 2.51 | 3 | 5 | 3.2% | 3.4% | – | 4 °C | 2000 nM | 676 nM | –
O=C(NO)C1(CS(=O)(=O)N2CCC(c3ccc(F)cc3Cl)C2)CCC1 (stereo not drawn) [QHL5] | 1200 nM | 3.79 | 3 | 4 | 3.3% | 2.7% | – | 4.29 °C | 1950 nM | 1120 nM | –
